Measured values taken from patent US20090110708A1, “ANIMATE TISSUE ANTISEPSIS” (priority 2007, published 2009).

Tested on: Staphylococcus aureus
Experiment: Kill of Staphylococcus aureus inoculated onto inanimate porcine intestine by forced evaporation of the applied solution
Assay type: cell-based

Row | Compound | death of the organisms (kill by enhanced evaporation) (initial H2O2 concentrations 4%-10% (vol.), 16 mg/cm^2 on tissue, blown air 50° C., 5.0 m/sec) | log reduction (no alcohol, 3 minute dry time) | log reduction (no alcohol, 3.5 minute dry time) | log reduction (no alcohol, 4 minute dry time) | log reduction (no peroxide, 10% alcohol (EtOH))
1 | OO [H2O2, hydrogen peroxide] | significantly killed | 2.21 | 2.68 | 1.79 | –
2 | ethyl alcohol [10% alcohol (EtOH), reference compound] | – | – | – | – | no measurable log reduction
